Assay results published in ChEMBL document CHEMBL2429758, “3-aroylmethylene-2,3,6,7-tetrahydro-1H-pyrazino[2,1-a]isoquinolin-4(11bH)-ones as potent Nrf2/ARE inducers in human cancer cells and AOM-DSS treated mice” (J Med Chem, 2013).
The source made the active and inactive calls. The calls are words filed in the database; no cut-off is given here.

How the values were obtained:
[1] = test system: Mus musculus; assay: Chemopreventive activity in azoxymethane dextran sodium sulfate C57BL/6 mouse model assessed as reduction of length of colon at 50 mg/kg/day treated with food measured after 130 days (reference value: 5.62 +/- 0.69 centimeter); format: functional
[2] = test system: Mus musculus; assay: Chemopreventive activity in azoxymethane dextran sodium sulfate C57BL/6 mouse model assessed as increase of WBC level at 50 mg/kg/day treated with food measured after 130 days (reference value: 5.33 +/- 1.34 10^9/L); format: functional
[3] = test system: HCT-116; assay: Induction of HO-1 expression in human HCT116 cells up to 8 hrs by Western blot analysis; format: functional, cell-based
[4] = test system: Mus musculus; assay: Chemopreventive activity in azoxymethane dextran sodium sulfate C57BL/6 mouse model assessed as induction of Nrf2 nuclear translocation at 50 mg/kg/day treated with food measured after 130 days immunofluorescence analysis; format: functional, organism-based
[5] = target: T1, Nuclear factor erythroid 2-related factor 2 (Homo sapiens) (UniProt Q16236); assay: Induction of Nrf2-mediated ARE activity in human HepG2-ARE-C8 cells at 0.01 uM after 12 hrs by luciferase reporter gene assay relative to control; format: cell-based
T1 sequence (whole entry): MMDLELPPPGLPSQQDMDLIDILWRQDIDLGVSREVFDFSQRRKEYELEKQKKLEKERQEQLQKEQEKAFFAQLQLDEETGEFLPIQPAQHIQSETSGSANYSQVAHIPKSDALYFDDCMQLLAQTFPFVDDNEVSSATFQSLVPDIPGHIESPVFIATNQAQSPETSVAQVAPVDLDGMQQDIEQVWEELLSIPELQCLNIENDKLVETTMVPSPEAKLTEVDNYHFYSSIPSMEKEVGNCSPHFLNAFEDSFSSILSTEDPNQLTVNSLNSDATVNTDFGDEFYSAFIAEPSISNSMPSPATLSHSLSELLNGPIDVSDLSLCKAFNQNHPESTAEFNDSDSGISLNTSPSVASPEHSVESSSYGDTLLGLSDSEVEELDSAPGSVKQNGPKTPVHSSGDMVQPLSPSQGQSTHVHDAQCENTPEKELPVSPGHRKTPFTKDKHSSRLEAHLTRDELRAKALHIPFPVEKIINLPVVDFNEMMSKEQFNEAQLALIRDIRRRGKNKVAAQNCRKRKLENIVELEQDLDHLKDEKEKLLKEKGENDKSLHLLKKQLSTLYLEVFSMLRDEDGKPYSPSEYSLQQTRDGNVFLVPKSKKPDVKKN

[6] = test system: Mus musculus; assay: Chemopreventive activity in azoxymethane dextran sodium sulfate C57BL/6 mouse model assessed as reduction of tumor incidence at 50 mg/kg/day treated with food measured after 130 days; format: functional; set-up: scale not given: the % may be the effect or the level left
[7] = test system: HCT-116; assay: Induction of HO-1 expression in human HCT116 cells at 10 uM by Western blot analysis; format: functional, cell-based; details: TDE = time-dependent effect
[8] = target: T1, Nuclear factor erythroid 2-related factor 2 (Homo sapiens); assay: Induction of Nrf2-mediated ARE activity in human HepG2-ARE-C8 cells after 12 hrs by luciferase reporter gene assay; format: cell-based
[9] = test system: Mus musculus; assay: Chemopreventive activity in azoxymethane dextran sodium sulfate C57BL/6 mouse model assessed as reduction of multiplicity of tumor at 50 mg/kg/day treated with food measured after 130 days; format: functional, organism-based
[10] = target: T1, Nuclear factor erythroid 2-related factor 2 (Homo sapiens); assay: Induction of Nrf2-mediated ARE activity in human HepG2-ARE-C8 cells at 10 uM after 12 hrs by luciferase reporter gene assay relative to control; format: cell-based
[11] = test system: Mus musculus; assay: Antiinflammatory activity in azoxymethane dextran sodium sulfate C57BL/6 mouse model assessed as reduction of IL-6 expression at 50 mg/kg/day treated with food measured after 130 days by immunohistochemical analysis; format: functional, organism-based
[12] = test system: Mus musculus; assay: Toxicity in azoxymethane dextran sodium sulfate C57BL/6 mouse model assessed as change body weight at 50 mg/kg/day treated with food measured after 130 days; format: organism-based; details: in vivo, 3120 h
[13] = target: T1, Nuclear factor erythroid 2-related factor 2 (Homo sapiens); assay: Induction of Nrf2 nuclear translocation in human HCT116 cells at 10 uM by Western blot analysis; format: cell-based; details: HCT-116
[14] = target: T1, Nuclear factor erythroid 2-related factor 2 (Homo sapiens); assay: Induction of Nrf2-mediated ARE activity in human HepG2-ARE-C8 cells at 1 uM after 12 hrs by luciferase reporter gene assay relative to control; format: cell-based
[15] = test system: HCT-116; assay: Induction of NQO1 expression in human HCT116 cells up to 24 hrs by Western blot analysis; format: functional, cell-based
[16] = target: T1, Nuclear factor erythroid 2-related factor 2 (Homo sapiens); assay: Induction of Nrf2-mediated ARE activity in human HepG2-ARE-C8 cells at 5 uM after 12 hrs by luciferase reporter gene assay relative to control; format: cell-based
[17] = test system: Mus musculus; assay: Antiinflammatory activity in azoxymethane dextran sodium sulfate C57BL/6 mouse model assessed as reduction of IL-1beta expression at 50 mg/kg/day treated with food measured after 130 days by immunohistochemical analysis; format: functional, organism-based
[18] = test system: HCT-116; assay: Induction of NQO1 expression in human HCT116 cells at 10 uM by Western blot analysis; format: functional, cell-based; details: TDE = time-dependent effect
[19] = test system: Mus musculus; assay: Chemopreventive activity in azoxymethane dextran sodium sulfate C57BL/6 mouse model assessed as reduction of neutrophils ratio at 50 mg/kg/day treated with food measured after 130 days (reference value: 12.73 +/- 1.65%); format: functional; set-up: scale not given: the % may be the effect or the level left
[20] = target: T1, Nuclear factor erythroid 2-related factor 2 (Homo sapiens); assay: Induction of Nrf2-mediated ARE activity in human HepG2-ARE-C8 cells at 0.1 uM after 12 hrs by luciferase reporter gene assay relative to control; format: cell-based
[21] = test system: Mus musculus; assay: Chemopreventive activity in azoxymethane dextran sodium sulfate C57BL/6 mouse model assessed as reduction of average size of tumor at 50 mg/kg/day treated with food measured after 130 days; format: functional
[22] = test system: Mus musculus; assay: Chemopreventive activity in azoxymethane dextran sodium sulfate C57BL/6 mouse model assessed as reduction of tumor burden at 50 mg/kg/day treated with food measured after 130 days; format: functional, organism-based
[23] = test system: Mus musculus; assay: Chemopreventive activity in azoxymethane dextran sodium sulfate C57BL/6 mouse model assessed as reduction of developed dysplasia at 50 mg/kg/day treated with food measured after 130 days by hematoxylin and eosin staining; format: functional, organism-based
[24] = test system: Mus musculus; assay: Toxicity in azoxymethane dextran sodium sulfate C57BL/6 mouse model assessed as sign of toxicity at 50 mg/kg/day treated with food measured after 130 days; format: organism-based; details: in vivo, 3120 h
[25] = test system: Mus musculus; assay: Chemopreventive activity in azoxymethane dextran sodium sulfate C57BL/6 mouse model assessed as increase of lymphocyte ratio at 50 mg/kg/day treated with food measured after 130 days (reference value: 87.75 +/- 2.16%); format: functional
[26] = target: T1, Nuclear factor erythroid 2-related factor 2 (Homo sapiens); assay: Induction of Nrf2-mediated ARE activity in human HepG2-ARE-C8 cells at 20 uM after 12 hrs by luciferase reporter gene assay relative to control; format: cell-based
[27] = target: T1, Nuclear factor erythroid 2-related factor 2 (Homo sapiens); assay: Induction of Nrf2-mediated ARE activity in human HepG2-ARE-C8 cells at 40 uM after 12 hrs by luciferase reporter gene assay relative to control; format: cell-based
[28] = target: T1, Nuclear factor erythroid 2-related factor 2 (Homo sapiens); assay: Induction of Nrf2-mediated ARE activity in human HepG2-ARE-C8 cells at 80 uM after 12 hrs by luciferase reporter gene assay relative to control; format: cell-based

Compound | fold change (FC) [5] | fold change (FC) [10] | fold change (FC) [14] | fold change (FC) [16] | fold change (FC) [20] | other results
O=C(/C=C1\NCC2c3ccccc3CCN2C1=O)c1ccccc1 (stereo unspecified) | 2 | 26.9 | 9.51 | 18.9 | 5.44 | Activity [1]: 4.59 cm; Activity [2]: 5.67 ×10⁹ /L; Activity [3]: Dose-dependent effect; Activity [4]: Active; Activity [6]: 50%; Activity [7]: tde; Activity [8]: Dose-dependent effect; Activity [9]: Active; inhibition [11]: Active; Activity [12]: Non-toxic; Activity [13]: Active; Activity [15]: Dose-dependent effect; inhibition [17]: Active; Activity [18]: tde; Activity [19]: 12.39%; Activity [21]: 2.2 mm; Activity [22]: Active; Activity [23]: Active; Activity [24]: Non-toxic; Activity [25]: 88.15%
COc1cc2c(cc1OC)C1CN/C(=C\C(=O)c3cccc(Cl)c3)C(=O)N1CC2 (stereo unspecified) | 1.41 | 1.44 | 1.07 | 1.15 | 1.47 | 
COc1cc2c(cc1OC)C1CN/C(=C\C(=O)c3ccccc3)C(=O)N1CC2 (stereo unspecified) | 0.86 | 1.67 | 1.35 | 1.46 | 0.85 | 
O=C(/C=C1\NCC2c3ccccc3CCN2C1=O)c1cc(F)cc(F)c1 (stereo unspecified) | 1.34 | 7.62 | 4.75 | 5.22 | 2.92 | 
COc1ccccc1C(=O)/C=C1\NCC2c3ccccc3CCN2C1=O (stereo unspecified) | 0.96 | 1.99 | 1.51 | 1.78 | 1.68 | 
O=C(/C=C1\NCC2c3ccccc3CCN2C1=O)c1ccc(F)c(F)c1 (stereo unspecified) | 2.12 | 6.38 | 3.23 | 5.47 | 2.25 | 
C[S+]([O-])CCCCN=C=S (stereo unspecified) |  | 8.35 | 2.7 | 5.52 |  | fold change (FC) [26]: 18.1
O=C(/C=C1\NCC2c3ccccc3CCN2C1=O)c1cccc(F)c1 (stereo unspecified) | 2.18 | 33 | 9.99 | 29.1 | 3.89 | Activity [3]: Dose-dependent effect; Activity [15]: Dose-dependent effect
O=C(/C=C1\NCC2c3ccccc3CCN2C1=O)c1cccc(C(F)(F)F)c1 (stereo unspecified) | 2.22 | 3.25 | 1.76 | 3.14 | 1.7 | 
COc1cc2c(cc1OC)C1CN/C(=C\C(=O)c3ccccc3F)C(=O)N1CC2 (stereo unspecified) | 1.07 | 1.1 | 0.95 | 0.97 | 0.8 | 
COc1ccc2c(c1)C1CN/C(=C\C(=O)c3cccc(F)c3)C(=O)N1CC2 (stereo unspecified) | 1.31 | 20.4 | 7.23 | 16.9 | 3.93 | 
COc1ccc2c(c1)C1CN/C(=C\C(=O)c3ccccc3F)C(=O)N1CC2 (stereo unspecified) | 1.44 | 12.4 | 3.44 | 9.84 | 2.75 | 
COc1cccc(C(=O)/C=C2\NCC3c4ccccc4CCN3C2=O)c1 (stereo unspecified) | 1.48 | 10 | 5.68 | 8.65 | 3.69 | 
O=C(/C=C1\NCC2c3ccccc3CCN2C1=O)c1ccccc1[N+](=O)[O-] (stereo unspecified) | 1.28 | 2.8 | 1.3 | 2.41 | 1.29 | 
CC(C)(C)c1cc(O)ccc1O |  | 1.5 |  | 1.04 |  | fold change (FC) [27]: 3.24; fold change (FC) [26]: 2.06; fold change (FC) [28]: 5.21
COc1cccc2c1CCN1C(=O)/C(=C/C(=O)c3ccccc3F)NCC21 (stereo unspecified) | 1.93 | 4.26 | 2.98 | 5.89 | 2.83 | 
O=C(/C=C1\NCC2c3ccccc3CCN2C1=O)c1ccc(-c2ccccc2)cc1 (stereo unspecified) | 1.62 | 2.09 | 1.41 | 1.69 | 1.67 | 
O=C(/C=C1\NCC2c3ccccc3CCN2C1=O)c1ccc(Cl)cc1Cl (stereo unspecified) | 1.68 | 2.49 | 1.42 | 1.78 | 1.1 | 
